Measurements published in patent US10138253B2, “Imidazopyridine macrocycles as inhibitors of human immunodeficiency virus replication” (priority 2015, dated 2018).
Read-outs that look alike come from different tables or passages of the source.

Tested on: NL-RLuc virus
Assay: Inhibition of HIV replication (NL-RLuc virus, luciferase readout, MT-2 cells)
Type: cell-based
Conditions: Human immunodeficiency virus 1, MT2, 120 h
Description: Inhibition of HIV Replication:
A recombinant NL-RLuc proviral clone was constructed in which a section of the nef gene from NL4-3 was replaced with the Renilla Luciferase gene. This virus is fully infectious and can undergo multiple cycles of replication in cell culture. In addition, the luciferous reporter provides a simple and easy method for quantitating the extent of virus growth and consequently, the antiviral activity of test compounds. The plasmid pNLRLuc contains the proviral NL-Rluc DNA cloned into pUC18 at the PvuII site. The NL-RLuc virus was prepared by transfection of 293T cells with the plasmid pNLRLuc. Transfections were performed using the LipofectAMINE PLUS kit from Invitrogen (Carlsbad, Calif.) according to the manufacturer and the virus generated was titered in MT-2 cells. For susceptibility analyses, the titrated virus was used to infect MT-2 cells in the presence of compound, and after 5 days of incubation, cells were processed and quantitated for virus growth by the amount of expressed luciferase. Assay media was RPMI 1640 supplemented with 10% heat inactivated fetal bovine serum (FBS), 100 units/ml penicillin G/100 units/ml streptomycin, 10 mM HEPES buffer pH 7.55 and 2 mM L-glutamine. The results from at least 2 experiments were used to calculate the EC50 values. Luciferase was quantitated using the Dual Luciferase kit from Promega (Madison, Wis.). Susceptibility of viruses to compounds was determined by incubation in the presence of serial dilutions of the compound. The 50% effective concentration (EC50) was calculated by using the exponential form of the median effect equation where (Fa)=1/[1+(ED50/drug conc.)^m] (Johnson V A, Byington R T. Infectivity Assay. In Techniques in HIV Research. ed. Aldovini A, Walker B D. 71-76. New York: Stockton Press. 1990). Activity equal to A refers to a compound having an EC50≤100 nM, while B and C denote compounds having an EC50 between 100 nM and luM (B) or >1 uM (C).

Structure (SMILES) | EC50 (read-out: Activity) [µM] | EC50 (read-out: EC50 μM) [µM]
Cc1c([C@H](OC(C)(C)C)C(=O)O)c2n3cc(nc3c1C(C)O)-c1cccc(c1)-c1cc(F)c(F)cc1O[C@@H](C)COCCOC1(C)CCN2CC1 (single isomer, unassigned) [Example 16] | < 0.1 | 0.002
Cc1cc2nc3cn2c(c1[C@H](OC(C)(C)C)C(=O)O)N1CCC(C)(CC1)OCCOC[C@H](C)Oc1cc(F)c(F)cc1-c1cccc-3c1 [Example 1, (2S)-2-(tert-Butoxy)-2-[(22S)-17,18-difluoro-4,22,28-trimethyl-21,24,27-trioxa-1,7,34-triazahexacyclo[26.2.2.1^6,^9.1^1^0,^1^4.0^2,^7.0^1^5,^2^0]tetratriaconta-2,4,6(34),8,10(33),11,13,15(20),16,18-decaen-3-yl]acetic Acid] | < 0.1 | 0.001
Cc1c([C@H](OC(C)(C)C)C(=O)O)c2n3cc(nc3c1C)-c1cccc(c1)-c1cc(F)c(F)cc1O[C@@H](C)COCCOC1(C)CCN2CC1 [Example 2, (2S)-2-(tert-Butoxy)-2-[(22S)-17,18-difluoro-4,5,22,28-tetramethyl-21,24,27-trioxa-1,7,34-triazahexacyclo[26.2.2.1^6,^9.1^1^0,^1^4.0^2,^7.0^1^5,^2^0]tetratriaconta-2,4,6(34),8,10(33),11,13,15(20),16,18-decaen-3-yl]acetic Acid] | < 0.1 | 
Cc1c([C@@H](OC(C)(C)C)C(=O)O)c2n3cc(nc3c1C)-c1cccc(c1)-c1cc(F)c(F)cc1O[C@@H](C)COCCOC1(C)CCN2CC1 [Example 3, (2R)-2-(tert-butoxy)-2-((6S,Z)-44,45-difluoro-14,27,6-trimethyl-5,8,11-trioxa-2(5,2)-imidazo[1,2-a]pyridina-1(1,4)-piperidina-3(1,3),4(1,2)-dibenzenacycloundecaphane-26-yl)acetic Acid] | 0.1 to 1 | 0.305
CCC(C)(C)O[C@H](C(=O)O)c1c(C)c(C)c2nc3cn2c1N1CCC(C)(CC1)OCCOC[C@H](C)Oc1cc(F)c(F)cc1-c1cccc-3c1 [Example 4, (2S)-2-[(22S)-17,18-Difluoro-4,5,22,28-tetramethyl-21,24,27-trioxa-1,7,34-triazahexacyclo[26.2.2.1^6,^9.1^1^0,^1^4.0^2,^7.0^1^5,^2^0]tetratriaconta-2,4,6(34),8,10(33),11,13,15(20),16,18-decaen-3-yl]-2-[(2-methylbutan-2-yl)oxy]acetic Acid] | < 0.1 | 
Cc1c([C@H](O)C(=O)O)c2n3cc(nc3c1C)-c1cccc(c1)-c1cc(F)c(F)cc1O[C@@H](C)COCCOC1(C)CCN2CC1 [Example 5, (2S)-2-[(22S)-17,18-Difluoro-4,5,22,28-tetramethyl-21,24,27-trioxa-1,7,34-triazahexacyclo[26.2.2.1^6,^9.1^1^0,^1^4.0^2,^7.0^1^5,^2^0]tetratriaconta-2,4,6(34),8,10(33),11,13,15(20),16,18-decaen-3-yl]-2-hydroxyacetic Acid] | 0.1 to 1 | 0.283
Cc1c([C@H](OC(C)(C)C)C(=O)O)c2n3cc(nc3c1CO)-c1cccc(c1)-c1cc(F)c(F)cc1O[C@@H](C)COCCOC1(C)CCN2CC1 [Example 6, (2S)-2-(tert-Butoxy)-2-[(22S)-17,18-difluoro-5-(hydroxymethyl)-4,22,28-trimethyl-21,24,27-trioxa-1,7,34-triazahexacyclo[26.2.2.1^6,^9.1^1^0,^1^4.0^2,^7.0^1^5,^2^0]tetratriaconta-2,4,6(34),8,10(33),11,13,15(20),16,18-decaen-3-yl]acetic Acid] | < 0.1 | 0.002
Cc1cc2nc3c(Cl)n2c(c1[C@H](OC(C)(C)C)C(=O)O)N1CCC(C)(CC1)OCCOC[C@H](C)Oc1cc(F)c(F)cc1-c1cccc-3c1 [Example 7, (2S)-2-(tert-Butoxy)-2-[(22S)-8-chloro-17,18-difluoro-4,22,28-trimethyl-21,24,27-trioxa-1,7,34-triazahexacyclo[26.2.2.1^6,^9.1^1^0,^1^4.0^2,^7.0^1^5,^2^0]tetratriaconta-2,4,6(34),8,10(33),11,13,15(20),16,18-decaen-3-yl]acetic Acid] | < 0.1 | 
Cc1c([C@H](OC(C)(C)C)C(=O)O)c2n3c(Cl)c(nc3c1C)-c1cccc(c1)-c1cc(F)c(F)cc1O[C@@H](C)COCCOC1(C)CCN2CC1 [Example 8, (2S)-2-(tert-Butoxy)-2-[(22S)-8-chloro-17,18-difluoro-4,5,22,28-tetramethyl-21,24,27-trioxa-1,7,34-triazahexacyclo[26.2.2.1^6,^9.1^1^0,^1^4.0^2,^7.0^1^5,^2^0]tetratriaconta-2,4,6(34),8,10(33),11,13,15(20),16,18-decaen-3-yl]acetic Acid] | < 0.1 | 
Cc1c([C@H](OC(C)(C)C)C(=O)O)c2n3c(Cl)c(nc3c1CO)-c1cccc(c1)-c1cc(F)c(F)cc1O[C@@H](C)COCCOC1(C)CCN2CC1 [Example 9, (2S)-2-(tert-Butoxy)-2-[(22S)-8-chloro-17,18-difluoro-5-(hydroxymethyl)-4,22,28-trimethyl-21,24,27-trioxa-1,7,34-triazahexacyclo[26.2.2.1^6,^9.1^1^0,^1^4.0^2,^7.0^1^5,^2^0]tetratriaconta-2,4,6(34),8,10(33),11,13,15(20),16,18-decaen-3-yl]acetic Acid] | < 0.1 | 
Cc1c([C@H](OC(C)(C)C)C(=O)O)c2n3c(Cl)c(nc3c1Cn1cccn1)-c1cccc(c1)-c1cc(F)c(F)cc1O[C@@H](C)COCCOC1(C)CCN2CC1 [Example 10, (2S)-2-(tert-Butoxy)-2-[(22S)-8-chloro-17,18-difluoro-4,22,28-trimethyl-5-(1H-pyrazol-1-ylmethyl)-21,24,27-trioxa-1,7,34-triazahexacyclo[26.2.2.1^6,^9.1^1^0,^1^4.0^2,^7.0^1^5,^2^0]tetratriaconta-2,4,6(34),8,10(33),11,13,15(20),16,18-decaen-3-yl]acetic acid] | < 0.1 | 0.005
COCc1c(C)c([C@H](OC(C)(C)C)C(=O)O)c2n3c(Cl)c(nc13)-c1cccc(c1)-c1cc(F)c(F)cc1O[C@@H](C)COCCOC1(C)CCN2CC1 [Example 11, (2S)-2-(tert-Butoxy)-2-[(22S)-8-chloro-17,18-difluoro-5-(methoxymethyl)-4,22,28-trimethyl-21,24,27-trioxa-1,7,34-triazahexacyclo[26.2.2.1^6,^9.1^1^0,^1^4.0^2,^7.0^1^5,^2^0]tetratriaconta-2,4,6(34),8,10(33),11,13,15(20),16,18-decaen-3-yl]acetic Acid] | < 0.1 | 
Cc1c([C@H](OC(C)(C)C)C(=O)O)c2n3c(Cl)c(nc3c1Cn1ccnn1)-c1cccc(c1)-c1cc(F)c(F)cc1O[C@@H](C)COCCOC1(C)CCN2CC1 [Example 12, (2S)-2-(tert-Butoxy)-2-[(22S)-8-chloro-17,18-difluoro-4,22,28-trimethyl-5-(1H-1,2,3-triazol-1-ylmethyl)-21,24,27-trioxa-1,7,34-triazahexacyclo[26.2.2.1^6,^9.1^1^0,^1^4.0^2,^7.0^1^5,^2^0]tetratriaconta-2,4,6(34),8,10(33),11,13,15(20),16,18-decaen-3-yl]acetic Acid] | < 0.1 | 0.012
